Data on three compounds can be found in patent US20100160351A1, “PHARMACEUTICAL COMPOSITIONS AND METHODS FOR TREATING HYPERURICEMIA AND RELATED DISORDERS” (NUON THERAPEUTICS, INC., priority 2008, published 2010).

The subject of experiment [1] is monosodium urate (MSU) crystal-induced air pouch inflammation. As to the kind of experiment: Air Pouch Model 1: MSU crystal air pouch, rodent model of gout. The experiment is classed as in vivo, male Sprague-Dawley rats. The note with it: for Average Exudate Volume / Average Plasma Extravasation, OD620 nm / Total WBC in Sample / WBC: +MSU, 4 h. The method, then: The objective of this study was to evaluate the anti-inflammatory affects of tranilast versus a clinically active treatment for gout, colchicine, as well as a clinically active non-steroidal antiinflammatory drug, indomethacin. This evaluation was carried out in male Sprague-Dawley rats in a rodent model of gout. The animals were injected subcutaneously with 20 ml of sterile air, followed three days later by a supplemental injection with 20 ml of sterile air. Six days after the initial sterile air injection, the rats were injected intravenously with Evan's Blue and pretreated for thirty minutes with either a subcutaneous injection of colchicine (1 mg/kg) or indomethacin (5 mg/kg) or oral administration with either 200 mg/kg or 400 mg/kg of tranilast. After the pretreatment period, the rats were injected with 150 mg of monosodium urate (MSU) crystals (10 mg·ml) into the air pouch. Four hours later, the air pouch was injected with 5 ml heparinized saline and the entire contents of the air pouch removed, recording the total volume. The air pouch contents were evaluated for plasma extravasation and total white blood cell (WBC) count.
On day 0 the rats were anesthetized in a biological cabinet, the nape of the neck was cleansed with 70% isopropanol followed by iodine tincture (VEDCO, lot L021976). Twenty ml sterile (0.22 μm, Fisher Scientific, Cat. 09-720-3, lot R5SN25683) air was injected subcutaneously using a 23 G×2 inch needle fixed to a 20 ml syringe. The rats were returned to routine housing. No adverse reactions were observed.
On day 3 the rats were anesthetized in a biological cabinet, the nape of the neck was cleansed with 70% isopropanol followed by iodine tincture (VEDCO, lot L021976). Twenty ml sterile (0.22 μm, Fisher Scientific, Cat. 09-720-3, lot R5SN25683) air was injected subcutaneously using a 23 G×2 inch needle fixed to a 20 ml syringe. The rats were returned to routine housing. No adverse reactions were observed.
On day 6 the rats were weighed (Mettler, Model PE3000, SN: F69474) and sorted into six treatment groups of ten animals each, based upon average weight. The animals were either dosed subcutaneously with 1 ml/kg colchicine or indomethacin, or orally with either 4 ml/kg or 8 ml/kg tranilast, or 8 ml/kg vehicle. Immediately after test material administration, the rats were intravenously injected with 2 ml/kg Evans Blue.
Thirty minutes after test material administration, the rats were anesthetized and five groups were injected into the air pouch with 15 ml MSU using an 18 G×1 inch needle fitted to a 20 ml syringe. The sixth group was injected with 15 ml saline. The rats were returned to their cages, no adverse affects were observed.
Four hours after MSU injection, the rats were anesthetized and 5 ml 10 U/ml heparinized saline was injected into the air pouch. The air pouch was gently massaged, the contents immediately removed using a 14 G×1 inch needle fitted to a 6 ml syringe, and the exudate volume recorded. An aliquot of the exudate was transferred to heparin-treated microtainer tubes (Becton Dickinson, Cat. 365958, lot 8093666, exp. June 09) for white blood cell (WBC) counting. The remainder of the exudate was centrifuged (Hermle Labrotechnik, Model Z200A, SN: 44060036), the supernatants removed and evaluated at OD620nm (Spectronic Unicam, Model 4000 1/4, SN: 3SGD003006) for plasma extravasation.

The test system of experiment [2] is serum uric acid (sUA) levels. Nature of the experiment: Study A3006GT: phase 2 crossover, sUA in healthy subjects with screening sUA of at least 7.1 mg/dL; tranilast, febuxostat, combination. The experiment is classed as in vivo, human. The procedure:
Study A3006GT was a phase 2, randomized, double-blind, 3-period, 3-treatment crossover trial. The primary objective was to compare the effects of three treatments on serum uric acid (sUA) levels in healthy subjects with a screening sUA level of at least 7.1 mg/dL. The three treatments were: 300 mg QD tranilast and 40 mg QD febuxostat (C); 300 mg QD tranilast alone (T); 40 mg QD febuxostat alone (F).
The study was conducted in 23 subjects. […] With two exceptions, every subject provided data for all three treatments. Subject 1001 completed only the first two periods of the study (C and F). […] Therefore, the period 3 data for subject 1024 are excluded from the analyses presented here.
Two endpoints were considered: change from baseline to day 7 in sUA; and percent change from baseline to day 7 in sUA. For each endpoint, an analysis of variance (ANOVA) model for a three-period crossover trial was used. The model included effects for sequence, subject within sequence, treatment, and period. The sequence effect was tested using the subject within sequence mean square as the error term. Two pairwise comparisons between treatments were tested: C−F and C−T. In addition, the two-sided 95% confidence interval for each of these differences was computed.
For each subject for which results were available from all three treatments, the difference between the change for C and the sum of the changes for F and T was computed. Although the true magnitude of the difference between these two values is not known, a conservative null hypothesis is that this difference should be equally likely to be greater than or less than zero. The sign test and the Wilcoxon signed rank test were used to test this null hypothesis.
Using the change for each subject as the dependent variable, an analysis of variance (ANOVA) model for a three-period crossover trial was fit. This model included effects for sequence, subject within sequence, treatment, and period. Using the least squares estimates of the mean changes for each treatment, along with the 3×3 covariance matrix of these three estimates, the mean and SD of the difference between C and F+T was estimated, as follows.

[3] abbreviates: 1 mg/kg colchicine subcutaneous, 30 min before MSU.
[4] abbreviates: Group 2: colchicine 1 mg/kg subcutaneous.
Where [5] appears, read: 5 mg/kg indomethacin subcutaneous, 30 min before MSU.
Setting [6] is: Group 3: indomethacin 5 mg/kg subcutaneous.
The mark [7] stands for this setting: end of 1-week treatment (day 7), C: 300 mg QD tranilast + 40 mg QD febuxostat, T: 300 mg QD, F: 40 mg QD.
[8] abbreviates: individual subjects, per study period, end of the 1-week treatment period.

Structures are written as SMILES. “And” between values parts separate entries of the source, which are not always exact repeats. Equal entries are not always repeated.

With `COc1cc2c(c(OC)c1OC)-c1ccc(OC)c(=O)cc1[C@@H](NC(C)=O)CC2` [Colchicine, N-[1,2,3,10-Tetramethoxy-9-oxo-5,6,7,9-tetrahydrobenzo[a]heptalen-7(S)-yl]acetamide], in experiment [1] (setting [3]), the “inhibition of plasma extravasation” value was determined as 52% and the “reduction in inflammatory cell infiltration” value amounted to 88%. Also, in experiment [1] (setting [4]), the “Average Exudate Volume” value came to 3.9 mL; the “Average Plasma Extravasation, OD620 nm” value stood at 0.776; the “Total WBC in Sample” value is given as 35131400; the WBC is given as 9215000 cells/ml.
`COc1ccc2c(c1)c(CC(=O)O)c(C)n2C(=O)c1ccc(Cl)cc1` [Indomethacin]: in experiment [1] (setting [5]), the “reduction in inflammatory cell infiltration into the air pouch” value is 94% and the “reduction of plasma extravasation” value was found to be 69%. For the same compound, in experiment [1] (setting [6]), the “Average Exudate Volume” value turned out to be 4.9 mL; the “Average Plasma Extravasation, OD620 nm” value is given as 0.505; the “Total WBC in Sample” value was determined as 18520000; the WBC is recorded as 4160000 cells/ml.
As to `Cc1nc(-c2ccc(OCC(C)C)c(C#N)c2)sc1C(=O)O` [F], in experiment [2] (setting [7]), the “sUA Change from Baseline, Max” value is -0.70 mg/dL; the “sUA Change from Baseline, Mean” value was -2.75 mg/dL; the “sUA Change from Baseline, Median” value was -2.85 mg/dL; the “sUA Change from Baseline, Min” value is -3.80 mg/dL. Further, in experiment [2] (setting [7]), the “sUA Percent Change from Baseline, Max” value is reported as −9.21%; the “sUA Percent Change from Baseline, Mean” value is recorded as −35.32%; the “sUA Percent Change from Baseline, Median” value is −36.86%; the “sUA Percent Change from Baseline, Min” value is −48.68%. In experiment [2] (setting [8]), the “sUA Change from baseline” value is −0.7 mg/dL and −2.9 mg/dL (2×) and −2.1 mg/dL (2×) and −1.2 mg/dL and −1.8 mg/dL and −2.8 mg/dL and −3.5 mg/dL (2×) and −2.4 mg/dL and −3.7 mg/dL (2×) and −2.7 mg/dL and −3.6 mg/dL (2×) and −3.3 mg/dL and −3.8 mg/dL and −2.2 mg/dL and −3.1 mg/dL and −2.3 mg/dL and −2.6 mg/dL; the “sUA Percent Change from baseline” value is −9.21% and −35.80% and −28.00% and −16.90% and −22.78% and −41.43% and −43.08% and −40.23% and −35.82% and −36.63% and −41.54% and −46.75% and −28.38% and −37.08% and −43.18% and −31.43% and −40.70% and −39.13% and −48.68% and −42.47% and −35.38% and −32.50%.
